# Test results: publication PMC7215935, “GM1 Oligosaccharide Crosses the Human Blood–Brain Barrier In Vitro by a Paracellular Route” (International Journal of Molecular Sciences, 2020)
# Like-named read-outs stand apart in the source and are kept apart here.
# What was measured:
# [1] = tested on: human brain-like endothelial cells (hBLECs); assay: Direct transport (apical to basolateral, A → B) across the hBLEC monolayer: Pe and Papp; type: in vitro ADME
# Method: (§1) Prior to the experiments, in order to verify the hBLECs’ monolayer integrity and stability, the permeability parameters were verified as previously reported. Briefly, 1.5 mL Ringer–Hepes solution (RH) (150 mM NaCl, 5.2 mM KCl, 2.2 mM CaCl2, 0.2 mM MgCl26H2O, 6 mM NaHCO3, 5 mM HEPES, pH: 7.4) was added to empty wells of a 12-well plate. Filter insert containing confluent monolayers of hBLECs or not (control) were subsequently placed in the 12-well plate, filled with 0.5 mL RH buffer containing the fluorescent integrity marker LY (50 μM), and then placed on an orbital shaker (150 rpm, Heidolph Titramax 100) at 37 °C in a humidify atmosphere of 95% air/5% CO2. Every 20 min for 1 h, filter inserts were withdrawn from the receiver compartment and placed in the next one. To verify the quantity of LY, at the end of the experiments, aliquots from the donor solution were taken at the end of the experiments and the fluorescence was quantified using a quantification curve of LY as referee. At least three inserts with cells and three without cells were tested in each permeability measurement. The fluorescence was measured using a luminescence spectrometer (LS 50B, Perkin Elmer), using the following excitation/emission wavelength (nm) settings: 432/538. Pe parameters were calculated according to the formulas shown in the Supplementary Information (Equations (7)–(10)). In parallel, as positive control for breakdown of hBLECs, D-mannitol, was used at a concentration of 1.4 M. At this concentration, mannitol induces an osmotic shock, and thus an increase in paracellular permeability.
# (§2) Transport experiments were carried out by adding tritium-labeled GM1 or OligoGM1 (1 × 10^6 dpm) to cold GM1 or OligoGM1, respectively, at different concentrations, as specified below.
# (§3) To identify and quantify the GM1 or OligoGM1 molecules in every transport experiment, aliquots from apical A (5 μL) and basolateral B (200 μL) compartments were collected at indicated time points and combined with 5 mL of ULTIMA GOLD liquid (PerkinElmer), shaken, and counted for 20 min by liquid scintillation analyzer (TRI-CARB 2100TR, Packard). Resulting radioactivity measures were used to estimate the quantity of the molecules. Experiments were performed on an agitation plate at 37 °C (150 rpm, Heidolph Titramax 100) in a humidify atmosphere of 95% air/5% CO2. At least three inserts with cells were tested in each transport experiment for each condition.
# (§4) To examine flux from apical to basolateral compartments (A → B), 1.5 mL RH buffer was added to empty wells of a 12-well plate. Following this, the hBLEC filter was placed in the same 12-well plate and filled with 0.5 mL RH buffer containing 1 × 10^6 dpm of tritiated [^3H]GM1 or [^3H]OligoGM1 plus 50 μM of cold GM1 or OligoGM1 (Figure S3b).
# (§5) To establish the time dependence of the transport experiments, hBLEC inserts filled with OligoGM1 were transferred into a new receiver well plate filled with fresh RH buffer every 20 min up to 240 min. The hBLECs’ properties, integrity, and stability were maintained up to 240 min in the transport experiments with RH buffer in the upper and basolateral side (see [28] and Figure S4).
# (§6) To establish the dose dependence in the transport experiments, 1 × 10^6 dpm of tritiated [^3H]OligoGM1 plus 5, 10, 50, 100, and 300 μM OligoGM1 solutions were prepared and employed as described above. The hBLECs inserts were transferred into a new RH-filled receiver well plate every 20 min up to 60 min. […]
# (§7) To evaluate the possible active transport involvement, the transport of OligoGM1 from apical to basolateral (A → B) compartments was performed at 4 °C, with the aim of inhibiting the active transport mechanism at low temperature. […]
# [2] = as above; type: in vitro ADME, human; details: human, pH 7.4, 50 μM
# Method: as §1, §2, §3, §4, §5, §6, §7
# hBLECs = assay: Metabolic integrity of OligoGM1 after hBLEC transport (HPTLC autoradiography); type: in vitro ADME, human; details: basolateral compartment, detection limit 15 dpm
# Description: Since OligoGM1 is tritium labeled at position 6 of the external galactose, any possible galactosidase activity present on the plasma membrane of hBLECs can result in external galactose removal, leading to loss of radioactivity from the penta-saccharide. Radiolabeled galactose may pass the BBB or may enter into the cells and be recycled for the biosynthesis of new glycans, so that the radioactivity found may correspond to the galactose or to any possible new glycan rather than to the original oligosaccharide.
# Thus, to test the integrity of the OligoGM1 molecule after hBLEC crossing, OligoGM1 solution was prepared in RH buffer at a final concentration of 100 μM plus 1 × 10^6 dpm of tritium-labeled OligoGM1. For the apical–basolateral transport experiment, the hBLEC insert’s apical side was filled with 0.5 mL of the drug solution and placed on 1.5 mL RH buffer-filled well of a 12-well plate. After 60 min, the solution of the receiving compartment (about 1.5 mL) was collected and 200 μL were combined with 5 mL of ULTIMA GOLD liquid (PerkinElmer), shaken, and counted for 20 min by a liquid scintillation analyzer (TRI-CARB 2100TR, Packard).
# To verify that the counted radioactivity indeed corresponded to [^3H]OligoGM1, 0.5 mL of receiving compartment solution was lyophilized and suspended in 0.5 mL of methanol. […]
# P-gp/BCRP = assay: ABC transporter competition assay (Caco-2 pump out), R123 efflux; details: Caco-2 cells, 10, 50 and 100 μM, vs control
# Method: Briefly, Caco-2 cells in 96-well plates were washed once with RH buffer and incubated for 120 min with 10 µM R123 or for 15 min with 0.5 µM CMFDA. R123 and CMFD are substrates for the major efflux pumps expressed by BBB and intestine cells, i.e., P-gp/BCRP and MRPs, respectively. After the incubation period, Caco-2 cells were washed twice with RH buffer with or without test compounds (OligoGM1 at 10, 50, and 100 µM). The rate out (Kout) of Caco-2 cells for fluorescent dyes was monitored by fluorescence measurement (λex = 501 nm and λem = 538 nm for R123; λex = 485 nm and λem = 538 nm for CMFDA) using a microplate fluorescent reader (BioTek, H1, Vermont, Winooski). The amount of dye expelled from the cells was measured at 37 °C and every 5 min for one hour for R123 and every 2 min for 30 min for CMFDA. The rate out of the dye from cells was calculated as the slope of the curve of the cumulative amount of dye against the time (Kout = ∆pmol⁄∆t) and compared with the value in the presence of test compounds.
smiles,measurement,setting,value
"CC(=O)NC1C(O)CC(OC2C(O)C(OC3C(CO)OC(O)C(O)C3O)OC(CO)C2OC2OC(CO)C(O)C(OC3OC(CO)C(O)C(O)C3O)C2NC(C)=O)(C(=O)O)OC1C(O)C(O)CO (stereo not drawn) [OligoGM1, β-Gal-(1-3)-β-GalNAc-(1-4)-[α-Neu5Ac-(2-3)]-β-Gal-(1-4)-β-Glc]",influence of BSA on rate of A → B transport,"[1]; 50 μM, 0.1% (w/v) BSA in apical solution, 60 min",No difference in the rate of transport
same,slope of linear regression: % of administered nmol in receiving compartment vs time (min),"[1]; 50 μM, 20-240 min, y = slope × x",0.1097
same,crossing rate / Pe of OligoGM1 relative to GM1,"[1]; 50 μM, hBLECs",20 fold
same,time dependence of A → B transport,"[1]; 50 μM, up to 240 min",linear time dependence
same,slope of linear regression: nmol in receiving compartment vs concentration (μM),"[1]; 5-300 μM, 60 min, y = slope × x",0.04352
same,concentration dependence of A → B transport,"[1]; 5 to 300 μM, 60 min",proportional increase
same,"Papp A→B at 60 min, 50 μM","[2]; 60 min, 4 °C (Figure 6d), read-out: Papp A>B at 4 °C",6.7 ± 0.17 ×10⁻⁶ cm/s
same,"Papp A→B at 60 min, 50 μM","[2]; 60 min, 37 °C, temperature experiment (Figure 6d), read-out: Papp A>B at 37 °C",8.8 ± 0.24 ×10⁻⁶ cm/s
same,"Papp A→B at 60 min, 50 μM","[2]; after 60 min, hBLEC monolayer, read-out: endothelial permeability Pe (A → B) (converted)",9.67 ×10⁻⁶ cm/s
same,metabolic stability after hBLEC crossing,hBLECs,not metabolized by hBLECs
same,effect on efflux (Kout) of R123,P-gp/BCRP,did not identify any difference
